Results: US11382872B2, “LSD1 inhibitors as skeletal muscle hypertrophy inducers” (CYTOO, priority 2016, dated 2022)
Counter-ions that a name gives are not always drawn. Like-named read-outs stand apart in the source and are kept apart here.

Columns and labels:
[1] = tested on: Human primary myoblasts; test: Hypertrophy assay (MyoScreen human myotube model): primary screening, retest, dose response; type: cell-based
Experimental: Healthy donor primary skeletal cells (Donor 1 and Donor 3) were Clonetics™ Human Skeletal Muscle Myoblasts (HSMM).
(§1) Hypertrophy and Atrophy Rescue assays were performed using an in vitro fully automated human myotube model called MyoScreen™ (Cytoo, France). This model relies on a tight control of the microenvironment that guides the differentiation of human primary myoblasts. Myotubes formed on MyoScreen™ micropatterns present a high level of maturation together with a highly standardized morphology.
(§2) Human primary myoblasts from donors were seeded in MyoScreen™ micropatterned 96-well plates (Cytoo, France), let them adhere for 24 h in growth medium, then run the differentiation in a low horse serum medium for at least 5 days.
(§3) At Day 0, MyoScreen™ plates (Cytoo, France) containing micropatterns were pre-filled with 200 μl/well of growth medium and stored in the incubator at 37° C. Human primary myoblasts were detached from the flasks, count, and seeded into the plates with 15 000 cells per well in 100 μl of growth medium.
(§4) At Day 1, the growth medium was changed for a differentiation medium, 300 μ/well (DMEM with 0.1% horse serum) in which myoblasts started differentiating and forming myotubes.
(§5) At Day 2, the differentiation medium was changed. Then candidate compounds were diluted with differentiation medium and transferred into the plate. The final concentration of DMSO should be not higher than 0.1%. At least 6 wells were treated with the vehicle as a basal control, and 6 wells were treated with IGF-1 at 100 ng/ml as positive hypertrophy control.
(§6) At Day 6, cells were fixed with formalin 5% for 30 min at room temperature, then permeabilized with Triton X-100 at 0.1% in PBS for 15 min, and blocked with PBS+BSA 1% for 20 minutes. Myotubes were incubated with first antibody against Troponin T in blocking buffer for 1 h30, washed three times with PBS, incubated with secondary antibody and Hoescht ( 1/10000) for 1 h30, and washed three times with PBS.
Images were acquired at 10× magnification with an Operetta High Content Imaging System. Image processing and analysis were performed with dedicated algorithms developed on the Acapella High Content Imaging Software (Perkin Elmer) by CYTOO. Eleven fields per well were acquired.
First, segmentation of myotubes and nuclei were done using respectively the Troponin T staining intensity and the Hoechst staining. […] The threshold of segmentation was set-up in order to avoid detecting the background noise and eliminate aberrant small myotube structures.
Then, an image clean-up step was performed on the Troponin T images in order to remove myotubes that touch the border of the image. The final valid myotubes were used to extract myotube morphology parameters including the myotube width and area, and the number of nuclei per myotube.
Nuclei Count, Fusion Index, Mean myotube Area and Number of nuclei per myotube have been validated as relevant and sensitive readouts of myotube differentiation as well as atrophic and hypertrophic induction.
A primary screening was run to identify hypertrophy compounds that increase the myotube differentiation and size. Candidate compounds were tested at 10 μM in monoplicate on Donor 3 cells.
A retest was run, by cherry picking (same compound batch as primary screening): each hit was tested in the same conditions as in the Primary Screening (Donor 3, 10 μM) in six well replicates.
Dose response assays were performed on two healthy donors (Donors 3 and 1): 8 doses of candidate compounds between 33 μM and 0.015 μM, 2 well replicates per dose.

[2] = tested on: Human primary myoblasts; test: as above; type: cell-based; remark: listed apart in the source
[3] = tested on: Myotubes from the healthy donor 3; test: Atrophy Rescue assay (MyoScreen) with atrophy inducers; type: cell-based, Human; parameters: key: +++: total rescue; ++: partial rescue; +: low rescue; conditions: tranylcypromine 1 μM; for atrophy rescue, IL-1: inducer IL-1β 25 ng/mL; for atrophy rescue, TGF-β: inducer TGF-β 0.5 ng/mL; for atrophy rescue, TNF-alpha: inducer TNF-α 2 ng/mL; for atrophy rescue, dexamethasone: inducer dexamethasone 100 μM; for atrophy rescue, Myostatin: inducer myostatin 150 ng/mL
Experimental: as §1, §2, §3, §4, §5
For Atrophy Rescue assay, one hour after candidate compound addition, atrophy inducers were added at the following final concentration: 150 ng/mL of myostatin, 25 ng/mL of IL-1β, 2 ng/mL of TNF-α, 0.5 ng/mL of TGF-β and 100 μM of dexamethasone.
as §6
Atrophy Rescue assays were performed in triplicate in the presence of atrophy inducers, i.e. TNF-α, IL-1β, Myostatin, TGF-β and dexamethasone, and at 1 μM tranylcypromine.
Atrophy rescue assays was performed for tranylcypromine. Myotubes from the healthy donor 3 were atrophied using different inducers: TNF-α, IL-1β, Myostatin, TGF-β and dexamethasone. The ability of tranylcypromine to block the atrophy induced by these different atrophy inducers was determined.

[4] = tested on: MyoScreen myotubes; test: Acetylcholine Receptor (AchR) Clustering Assay (MyoScreen); type: cell-based, Human; conditions: after 7 days of treatment
Experimental: The MyoScreen™ protocol was performed as described in the Hypertrophy and Atrophy rescue assay in example 1 but was stopped at Day 9 instead of Day 6. At the end of the assay, AchR were immunostained using a specific antibody in addition to Troponin T and nuclei. Images were acquired at ×20 with an Operetta High Content Imaging System from Perkin Elmer. Image processing and analyses were performed with a dedicated algorithm developed on the Acapella High Content Imaging Software (Perkin Elmer). Specific readouts were calculated in each well: nuclei count and myotube fusion index, number of AchR, AchR mean area, AchR total area normalized by the myotube total area.
Remarkably, when labeled with a specific anti-AChR antibody, MyoScreen myotubes at 6 days post-differentiation display AChR clusters punctuated along the sarcolemma membrane in the middle of the myotube fiber and in distinct regions at the ends of myotubes. To develop an automated AChR cluster assay, an AChR detection routine was developed that was sensitive and robust enough to analyze aggregate number and size clusters in images using the Operetta/Acapella system (see Materials and Methods).

[5] = Homo sapiens, Myoblast, Donor 3, second dose response assay
[6] = Donor 3, second dose response assay, lower concentrations
[7] = Donor 1, first dose response assay (0.015-33 μM)
[8] = Donor 3, Example 2 dose response
[9] = Donor 3, first dose response assay (0.015-33 μM)
[10] = Donor 5, Example 2 dose response
[11] = Donor 7, compounds at 1 μM (IGF-1 positive control)

| Compound | EC50 [1, 5] [nM] | % Activity [2, 6] [%] | % Activity [1, 7] [%] | % Activity [1, 8] [%] | % Activity [1, 9] [%] | atrophy rescue, IL-1 [3] | atrophy rescue, TGF-β [3] | atrophy rescue, TNF-alpha [3] | atrophy rescue, dexamethasone [3] | atrophy rescue, Myostatin [3] | % Activity [2, 10] [%] | % Activity [2, 11] | other results |
| --- | --- | --- | --- | --- | --- | --- | --- | --- | --- | --- | --- | --- | --- |
| CN1CCN(C(=O)CN[C@H]2C[C@@H]2c2ccc(OCc3ccccc3)cc2)CC1 [RN 1 dihydrochloride] | 0.1 | 135 |  |  |  |  |  |  |  |  |  |  |  |
| IGF-1: insulin-like growth factor I, positive hypertrophy control at 100 ng/ml |  | 150 | 150 | 190 | 150 | +++ | ++ | +++ | +++ | +++ | 145 | 119% | Primary screening (% Activity) ([1]; Donor 3, compounds 10 μM, monoplicate (IGF-1 control 100 ng/ml), Myotube fusion index (compound)*100/basal control): 210%; Retest (% Activity) ([2]; Donor 3, compounds 10 μM, six well replicates (IGF-1 control 100 ng/ml), Myotube fusion index (compound)*100/basal control): 190%; % Activity ([2]; Donor C1, compound at 1 μM (IGF-1 positive control)): 124%; % Activity ([2]; Donor C13, compound at 1 μM (IGF-1 positive control)): 141% |
| c1ccc(C2C[C@H]2NC2CCNCC2)cc1 (stereo partly drawn) [GSK LSD1] | 0.1 | 145 |  |  |  |  |  |  |  |  | 146 |  | increase of AchR cluster total area (normalized by total myotube area) ([4]; Donor 3): 50%; increase of AchR cluster total area (normalized by total myotube area) ([4]; Donor 5): 260%; EC50 ([2]; Homo sapiens, Myoblast, Donor 5, Example 2 dose response): 0.012 nM; activity at 1 µM ([2]; Homo sapiens, Myoblast, Donor 7, compounds at 1 μM (IGF-1 positive control)): 120%; activity at 1 µM ([2]; Homo sapiens, Myoblast, Donor C1, compound at 1 μM (IGF-1 positive control)): 154%; activity at 1 µM ([2]; Homo sapiens, Myoblast, Donor C13, compound at 1 μM (IGF-1 positive control)): 123% |
| N[C@H]1C[C@@H]1c1ccccc1 (relative stereo) [Tranylcypromine, trans-2-phenylcyclopropan-1-amine] | 50 | 135 | 138 |  | 127 | +++ | + | + | ++ | +++ |  |  | EC50 ([2]; Homo sapiens, Myoblast, Donor 1, first dose response assay): < 300 nM; activity at 10 µM ([2]; Homo sapiens, Myoblast, Donor 3, compounds 10 μM, monoplicate (IGF-1 control 100 ng/ml), Myotube fusion index (compound)*100/basal control, read-out: Primary screening (% Activity)): 176%; activity at 10 µM ([2]; Homo sapiens, Myoblast, Donor 3, compounds 10 μM, six well replicates (IGF-1 control 100 ng/ml), Myotube fusion index (compound)*100/basal control, read-out: Retest (% Activity)): 136%; EC50 ([2]; Homo sapiens, Myoblast, Donor 3, first dose response assay): < 30 nM; increase in the fusion index or/and myotube area readouts ([2]; primary screening and retest, Donor 3, 10 μM): > 30% |
| Cl.Cl.NNCCc1ccc(NC(=O)CCCc2ccccc2)cc1 [Bizine] |  |  |  | 120 |  |  |  |  |  |  | 119 | 116% at 1 μM | EC50 [1, 8]: < 350 nM; EC50 [2, 10]: 87 nM |
